pIC50: −log10 of the molar value. Where no end group is shown, it is not given here.

For one data set, the system named is Jurkat cells. The data set is described as follows: Single cell digital imaging of intracellular Ca2+ (Fura-2). The format is cell-based, human. The note with it: for effect on percentage of cells displaying peptide-induced Ca2+ oscillations: xestospongin C 10 μM, U73122 0.25 μM, peptide 10 μM, 90 min, FIG. 8A. The procedure:
(§1) WEHI7.2 cells were cultured in DMEM supplemented with 10% fetal calf serum, L-glutamine (2 mM), and nonessential amino acids (100 μM). Transfections of WEHI7.2 cells with expression vectors encoding wild type Bcl-2 and Bcl-2RS/GG were described previously. Jurkat cells and RS11846 cells were cultured in RPMI medium supplemented with 10% fetal bovine serum, L-glutamine (2 mM), and nonessential amino acids (100 μM). Cells were maintained in 5% carbon dioxide at high humidity.
(§2) Methods of Ca^2+ imaging, described in detail previously, were employed here with only minor modification. Briefly, cells adhered to poly-L-lysine-coated coverslips (35-mm coverslip dishes, MatTek Corp., Ashland, Mass.) were loaded with 1 μM Fura-2 AM for 45 min at 25° C. in extracellular buffer (ECB) (130 mM NaCl, 5 mM KCl, 1.5 mM CaCl2, 1 mM MgCl2, 25 mM Hepes, pH 7.5, 1 mg/ml BSA, and 5 mM glucose). The buffer was replaced with fresh ECB and the incubation continued for […] at 25° C. to permit de-esterification. Culture dishes were mounted on the non-heated stage of an inverted microscope (Olympus CKX41) equipped with a 20× Fluor objective. Excitation light was alternated between 340 and 380 nm by a filter wheel (Sutter Instrument Co.), with 0.8 sec and 0.2 sec exposure times respectively, and emitted light was filtered at >510 nm and collected with an intensified charge-coupled device camera (Cooke 12 bit VGA). The video signal was digitized using InCyt Im2 software (Intracellular Imaging) and subsequently processed using Microsoft Excel. To determine Rmin cells were perfused with ECB deficient in Ca^2+ and supplemented with 4 mM EGTA and 10 μM ionomycin. Rmax was obtained by perfusing cells with ECB supplemented with 4 mM CaCl2 and 10 μM ionomycin. […] In most experiments peptides were fused with the cell penetrating peptide of HIV TAT to facilitate uptake by cells. In some experiments peptides, without linkage to TAT, were delivered into cells using Chariot reagent (Active Motif) as previously described. Xestospongin C (Enzo Life Sciences International) and U73122 (Sigma), both dissolved in DMSO, were added to cells […] prior to Ca^2+ measurements.

For the next data set, the target named is Bcl-XL (Homo sapiens, UniProt Q07817). To be noted: read-out: inhibitory concentration of 50% (IC50) for displacing BH3 peptides; cited from earlier work.
In the next data set the target is T1, Bcl-B (Homo sapiens, UniProt Q9HD36).
T1 sequence (Q9HD36 1-204): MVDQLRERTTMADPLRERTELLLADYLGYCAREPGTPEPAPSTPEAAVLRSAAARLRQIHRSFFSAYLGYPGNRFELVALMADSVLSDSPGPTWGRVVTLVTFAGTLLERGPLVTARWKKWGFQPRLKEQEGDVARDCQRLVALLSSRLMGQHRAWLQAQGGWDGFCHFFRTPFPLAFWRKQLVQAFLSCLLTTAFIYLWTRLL
To be noted: read-out: inhibitory concentration of 50% (IC50) for displacing BH3 peptides; cited from earlier work.

In a further data set the target is T2, Bfl-1 (Homo sapiens, UniProt Q16548).
T2 sequence (Q16548 1-175): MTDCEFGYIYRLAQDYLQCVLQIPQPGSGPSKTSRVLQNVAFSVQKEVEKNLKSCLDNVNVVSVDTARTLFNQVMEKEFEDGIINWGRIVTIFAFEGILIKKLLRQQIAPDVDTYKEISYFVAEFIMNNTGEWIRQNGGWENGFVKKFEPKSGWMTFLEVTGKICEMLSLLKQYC
The note with it: read-out: inhibitory concentration of 50% (IC50) for displacing BH3 peptides; cited from earlier work.

Data set [1] has as its system IP3R-mediated Ca2+ release inhibited by BH4-Bcl-2. The data set is described as follows: Unidirectional 45Ca2+-flux assay in permeabilized MEF cells. The format is cell-based. The note with it: 40 μM IDPDD/AA, 40 μM BH4-Bcl-2 peptide, 3 μM IP3, FIG. 7. The procedure:
Twelve-well clusters containing MEF cells were fixed on a thermostated plate at 30° C. on a mechanical shaker. The culture medium was aspirated, and the cells were permeabilized by incubating them for 10 min in a solution containing 120 mM KCl, 30 mM imidazole-HCl (pH 6.8), 2 mM MgCl2, 1 mM ATP, 1 mM EGTA and 20 μg/ml saponin. The non-mitochondrial Ca^2+ stores were then loaded for 45 min in 120 mM KCl, 30 mM imidazole-HCl (pH 6.8), 5 mM MgCl2, 5 mM ATP, 0.44 mM EGTA, 10 mM NaN3 and 150 nM free ^45Ca^2+ (28 μCi/ml). Then, 1 ml of efflux medium containing 120 mM KCl, 30 mM imidazole-HCl (pH 6.8) and 1 mM EGTA was added and replaced every 2 min IP3 (3 μM) was added for 2 min after 10 min of efflux. BH4-Bcl2 peptide (40 μM), in the presence or not of IDPDD/AA peptide (40 μM), was added from 4 min before IP3 to 2 min after IP3. At the end of the experiment, all 45Ca^2+ remaining in the stores was released by incubation with 1 ml of a 2% (w/v) sodium dodecyl sulfate solution for 30 min Ca^2+ release was plotted as fractional loss (%/2 min) as a function of time, as previously described.

In the next data set the target is Bcl-2 (Homo sapiens, UniProt P10415). In words: Biotin-streptavidin pulldown assay. In kind it is binding. To be noted: 200 μM biotin-peptide, lysate of WEHI7.2 cells overexpressing wild type Bcl-2. The procedure:
WEHI7.2 cells overexpressing wild type Bcl-2 were washed twice with PBS and incubated on ice for 30 min in 400 ul CHAPS lysis buffer (50 mM Tris-HCL pH 7.5, 100 mM NaCL, 2 mM EDTA, 1% CHAPS, 50 mM NaF, 1 mM Na3VO4, protease inhibitor cocktail, PhosSTOP). Cell lysates were centrifuged for 15 min at 20,000 g at 4 C and the supernatant (protein concentration 5 mg/ml) was continuously rotated with 200 μM biotin-Scr or biotin-IDPDD/AA, or without peptide, at 4 C for 16 hr. Streptavidin Sepharose beads ([…]) (Pierce Pull-Down Biotinylated Protein:Protein Interaction Kit, Thermo, Cat #21115) were washed three times with tris buffered saline (25 mM Tris.HCL, 0.15M NaCl, pH 7) and then added to 400 μl cell lysate, followed by rotation for 2 hours at 4 C. After this, the beads were washed four times with tris buffered saline, centrifuging for 30-60 second each time. The beads were then incubated for 3-5 min at room temperature with 50 μl elution buffer provided with the Pierce pulldown kit (above) and centrifuged at 1,250×g for 30-60 seconds. The supernatant was boiled in SDS-PAGE sample buffer for 5 min and western blotting for Bcl-2 was performed as described above.

The target of the next data set is T3, Bcl-2-IP3R interaction (Homo sapiens, UniProt P10415).
T3 construct: expressed in transfected cells; host or cells: WEHI7.2 (murine T cell lymphoma); IP3R endogenous
The data set is described as follows: Co-immunoprecipitation assay. The format is binding. To be noted: 200 μM peptide, lysate of WEHI7.2 cells overexpressing wild type Bcl-2. The procedure: One hundred million WEHI7.2 cells overexpressing wild type Bcl-2 were washed twice with PBS and then lysed on ice for 30 min in 1 ml CHAPS buffer. The supernatant was prepared by centrifugation for 15 min at 20,000 g at 4° C. The supernatant (1 ml) was mixed with 100 μl 50% protein G in Tris 50 mM pH 7.5 buffer and rotated at 4 C for 2 hrs. After removing the beads, the supernatant was incubated with 200 μM peptide (Scr or IDPDD/AA, or without peptide addition, for 2 hrs at 4° C. Then hamster anti-human Bcl-2 antibody was added (final dilution 1:250) and the supernatant was rotated for 16 hrs at 4 C, followed by rotation in the presence of 50 μl protein G (50% beads) for 2 hours at 4 C. The beads were washed six times with CHAPS buffer and boiled for 5 min in SDS sample buffer followed by resolution of proteins by SDS-PAGE and analysis by western blotting for the IP3R using anti-IP3R antibody (BD Biosciences (Cat #610313) at 1:2,000 dilution and for Bcl-2 as described above.

For data set [2], the system named is Bcl-2-positive WEHI7.2 cells. The data set is described as follows: Single cell digital imaging of intracellular Ca2+ (Fura-2). The format is cell-based, murine. The procedure:
as §1
Methods of Ca^2+ imaging, described in detail previously, were employed here with only minor modification. Briefly, cells adhered to poly-L-lysine-coated coverslips (35-mm coverslip dishes, MatTek Corp., Ashland, Mass.) were loaded with 1 μM Fura-2 AM for 45 min at 25° C. in extracellular buffer (ECB) (130 mM NaCl, 5 mM KCl, 1.5 mM CaCl2, 1 mM MgCl2, 25 mM Hepes, pH 7.5, 1 mg/ml BSA, and 5 mM glucose). The buffer was replaced with fresh ECB and the incubation continued for […] at 25° C. to permit de-esterification. Culture dishes were mounted on the non-heated stage of an inverted microscope (Olympus CKX41) equipped with a 20× Fluor objective. […]

In data set [3] the test system is primary CLL cells. The data set is described as above. In kind it is cell-based, human.
Source text: (§3) Lymphocytes were freshly separated from heparinized peripheral blood obtained from normal adult volunteers or adult patients with chronic lymphocytic leukemia (CLL) meeting standard diagnostic guidelines. Patients had either never received treatment or had received treatment over two years prior to obtaining samples. We conformed to all guidelines and regulations in accordance with Internal Review Board protocols ICC2902/11-02-28 (Case Western Reserve University Cancer Center/University Hospitals of Cleveland Ireland Cancer Center). Cells were separated by centrifugation through Ficoll-Hypaque and suspended in RPMI medium supplemented with 10% fetal bovine serum, L-glutamine (2 mM), and nonessential amino acids (100 μM) at a density of 2 million cells/ml. Normal CD19+ B cells were pooled from healthy individuals between 26 and 32 years of age, in accordance with IRB-approval (as above). Mononuclear cells were separated by Ficoll-Hypaque centrifugation, and further isolation of B and T cells was achieved by magnetic separation using CD19 microbeads (Miltenyi Biotec, Bergisch Gladbach, Germany).
as §2

Data set [4] has as its system primary CLL cells. The data set is described as follows: Apoptosis and cell death assays (trypan blue, propidium iodide, Hoechst nuclear morphology, Annexin V). In kind it is cell-based, human.
Source text: as §3, with “Patients had either never received treatment or had received treatment over two years prior to obtaining samples.” left out
Apoptosis was quantified according to apoptotic nuclear morphology and by detection of phosphatidylserine exposure on the plasma membrane. […] Images were obtained using a chargecoupled device camera (Hamamatsu Photonics, Shizuoka, Japan) and digitally converted by Simple PCI software (Hamamatsu Photonics). Membrane translocation of phosphatidylserine was detected by Annexin V staining. Annexin V-positive cells were assessed by flow cytometry using an ARIA flow cytometer (Beckman Coulter, Pasadena, Calif., USA). All flow cytometry data were analyzed using FlowJo 8.8.4 for Macintosh (Treestar, Ashland, Oreg., USA). Dead cells were identified according to their inability to exclude trypan blue dye or propidium iodide. Trypan blue dye uptake into cells was detected by light microscopy using a 40× objective and quantified by counting up to 400 cells. Propidium iodide uptake was quantified by flow cytometry in association with the Annexin V measurement described above.

Data set [5] deals with Bcl-2-positive WEHI7.2 cells. The note with it: data not shown.

T3 sequence (P10415 whole entry): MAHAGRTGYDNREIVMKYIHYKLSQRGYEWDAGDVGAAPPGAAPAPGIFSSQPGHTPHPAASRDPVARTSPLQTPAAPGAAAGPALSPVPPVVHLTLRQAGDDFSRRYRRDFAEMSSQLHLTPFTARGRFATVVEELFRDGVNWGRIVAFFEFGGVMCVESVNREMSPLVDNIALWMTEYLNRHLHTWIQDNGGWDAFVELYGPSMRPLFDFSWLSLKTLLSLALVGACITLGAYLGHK
Chain of Bcl-2 (P10415 whole entry, species assumed): as the sequence (P10415 whole entry) above
Chain of Bcl-XL (Q07817 whole entry, species assumed): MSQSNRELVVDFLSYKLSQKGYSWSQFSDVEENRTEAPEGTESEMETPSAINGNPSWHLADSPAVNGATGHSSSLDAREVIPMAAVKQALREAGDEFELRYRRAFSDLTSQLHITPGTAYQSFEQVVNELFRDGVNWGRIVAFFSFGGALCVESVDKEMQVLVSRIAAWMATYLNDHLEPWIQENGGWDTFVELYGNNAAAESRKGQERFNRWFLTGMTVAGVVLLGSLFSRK

With `COc1ccc2c(c1)CC[C@@H]1[C@@H]2CC[C@]2(C)[C@@H](NCCCCCCN3C(=O)C=CC3=O)CC[C@@H]12` [U73122], the “effect on percentage of cells displaying peptide-induced Ca2+ oscillations” value with Jurkat cells is recorded as “reduced”.
Consider pepstatin A, for which, in the data set on Jurkat cells (TAT-IDP in Jurkat cells), the “effect of pretreatment on amplitude of peptide-induced Ca2+ elevations” value is listed as “significant enhancement” and the “effect of pretreatment on percentage of cells displaying peptide-induced calcium elevations” value is “slight, but not significant, increase”.
For the compound `Cc1cc2c(C(C)C)c(O)c(O)c(C=O)c2c(O)c1-c1c(C)cc2c(C(C)C)c(O)c(O)c(C=O)c2c1O` [Gossypol, 1,6,7,1′,6′,7′-Hexahydroxy-5,5′-diisopropyl-3,3′-dimethyl-[2,2′]binaphthalenyl-8,8′-dicarbaldehyde], the pIC50 at Bcl-XL, at Bcl-B and at Bfl-1 was about 6.30 each time.
Regarding “NVYTEIKCNSLLPLAAIVRV (listed as Homo sapiens) [IDPDD/AA, IDP with DD/AA substitution, without TAT]”, the “effect on Bcl-2-imposed inhibition of IP3-induced 45Ca2+ efflux from the ER” value in data set [1] is reported as “reversed”. Moreover, the “interaction with Bcl-2” value in the data set with Bcl-2 is “documented”. Moreover, the “disruption of Bcl-2-IP3R interaction” value with Bcl-2-IP3R interaction was “confirmed”.
On to “IDP: synthetic IP3R-derived peptide, 20 amino acid sequence within the Bcl-2-binding site on the IP3R (RKKRRQRRRGGNVYTEIKCNSLLPLDDIVRV; listed as Homo sapiens)”, for which the “number of Ca2+ spikes observed per cell” value in [2] (2 μM peptide, 70 min recordings, FIG. 2) is listed as “very infrequent”. Besides, the “induction of Ca2+ elevations” value in data set [2] (peptide introduced by Chariot peptide uptake reagent, data not shown) is “induced Ca^2+ elevations”.
As for `CN(C)CCC(CSc1ccccc1)Nc1ccc(S(=O)(=O)NC(=O)c2ccc(N3CCN(Cc4ccccc4-c4ccc(Cl)cc4)CC3)cc2)cc1[N+](=O)[O-]` (centres unmarked) [ABT-737, N-[4-[4-(4′-Chloro-biphenyl-2-ylmethyl)-piperazin-1-yl]-benzoyl)-4-(3-dimethylamino-1-phenylsulfanylmethyl-propylamino)-3-nitro-benzenesulfonamide, reference compound], the “induction of Ca2+ elevation” value in the data set with primary CLL cells [3] (2 μM ABT-737, FIG. 11A) is “did not induce Ca^2+ elevation”. In the data set on primary CLL cells [4] (2 μM, 24 hr, trypan blue dye uptake, FIG. 11B), the “death of CLL cells” value amounted to 40%.
Take `C1CCC[C@H]2CCCN3CC[C@@H](CCCCCC[C@@H]4CCCN5CC[C@@H](CC1)O[C@@H]45)O[C@@H]23` [xestospongin C, reference compound]: the “effect on percentage of cells displaying peptide-induced Ca2+ oscillations” value in the data set with Jurkat cells is “reduced”. The “effect on Ca2+ responses to TAT-IDP and TAT-IDPDD/AA” value in the data set on primary CLL cells [3] (CLL cells) is recorded as “inhibited”. Also, the “effect on apoptosis induction by TAT-IDPDD/AA” value with primary CLL cells [4] (CLL cells) is “inhibited”.
For “RKKRRQRRRGGNVYTEIKCNSLLPLDDIVRV [TAT-IDP]”, the “cell viability following treatment” value in [5] is reported as “not lost”.
